Experiments:
Assay type in all cases: cell-based
AAK1 = biological target: T1, AAK1 (Homo sapiens, UniProt Q2M2I8); assay: NanoBRET K192 assay (Promega); conditions: HEK293 cells
T1 construct: against 192 full-length protein kinases in human embryonic kidney 293 (HEK293) cells; host or cells: HEK293
Experimental: (§1) NanoBRET Target Engagement K192 assay. HEK293 cells (ATCC) were cultured in DMEM (Gibco) + 10% FBS (Seradigm) and incubated in a humidified 37°C/5% CO2 incubator. The NanoBRET Target Engagement K192 Kinase Selectivity System (Promega) contains 192 unique transfection-ready NanoLuc/Kinase fusions, pre-diluted in either transfection carrier DNA or relevant cyclin DNA. These NanoLuc/Kinase fusion constructs were transfected into HEK293 cells using Fugene HD (Promega) according to the manufacturer’s protocol. Briefly, 10 µL of a 20 µg/mL DNA solution was added to white, TC-treated 96-well assay plates (Corning), followed by 30 µL of a diluted Fugene HD solution (20 µL Fugene/1 mL Opti-MEM). After transfection complex formation, HEK293 cells were resuspended at 3.3 × 105 c/mL in Opti-MEM + 1% FBS and added at a volume of 60 µL per well, to result in approximately 20000 cells/well. Cells were incubated in a humidified 37°C/5% CO2 incubator for 20 hours. Tracer K-10 (Promega) was prepared at a 100× concentration in DMSO (Sigma) and diluted to a working concentration of 10× in tracer dilution buffer (12.5 mM HEPES, 31.25% PEG400, pH 7.5) (Promega). Test compounds were prepared as concentrated stock solutions in DMSO and diluted in Opti-MEM to prepare 10× working stocks. Cells were equilibrated with test compounds and Tracer K-10 for 2 hours prior to BRET measurements. For target engagement analysis, Tracer K-10 was added to cells at one of 4 […]
(§2) manufacturer’s protocol. To measure BRET, NanoBRET NanoGlo Substrate and Extracellular NanoLuc Inhibitor (Promega) were added according to the manufacturer’s protocol, and filtered luminescence was measured on a GloMax Discover luminometer equipped with 450 nm BP filter (donor) and 600 nm LP filter (acceptor), using 0.5 s integration time. Milli-BRET units are calculated by multiplying the raw BRET units by 1000.
(§3) For Fractional Occupancy determination, the following equation was used:
(§4) % Occupancy = [1-(X-Z)/(Y-Z)]×100
(§5) Where X = BRET in the presence of the test compound and Tracer K10, Y = BRET in the presence of Tracer K10 only, and Z = Full occupancy, or BRET in the absence of the test compound and […]
(§6) Tracer K10. […]

BMP2K = biological target: T2, BMP2K (Homo sapiens, UniProt Q9NSY1); assay: NanoBRET K192 assay (Promega); conditions: HEK293 cells
T2 construct: against 192 full-length protein kinases in human embryonic kidney 293 (HEK293) cells; host or cells: HEK293
Experimental: as §1, §2, §3, §4, §5, §6

CSNK1G2 = biological target: T3, CSNK1G2 (Homo sapiens, UniProt P78368); assay: NanoBRET K192 assay (Promega); conditions: HEK293 cells
T3 construct: against 192 full-length protein kinases in human embryonic kidney 293 (HEK293) cells; host or cells: HEK293
Experimental: as §1, §2, §3, §4, §5, §6

EPHA1 = biological target: T4, EPHA1 (Homo sapiens, UniProt P21709); assay: NanoBRET K192 assay (Promega); conditions: HEK293 cells
T4 construct: against 192 full-length protein kinases in human embryonic kidney 293 (HEK293) cells; host or cells: HEK293
T4 sequence (P21709 26-976): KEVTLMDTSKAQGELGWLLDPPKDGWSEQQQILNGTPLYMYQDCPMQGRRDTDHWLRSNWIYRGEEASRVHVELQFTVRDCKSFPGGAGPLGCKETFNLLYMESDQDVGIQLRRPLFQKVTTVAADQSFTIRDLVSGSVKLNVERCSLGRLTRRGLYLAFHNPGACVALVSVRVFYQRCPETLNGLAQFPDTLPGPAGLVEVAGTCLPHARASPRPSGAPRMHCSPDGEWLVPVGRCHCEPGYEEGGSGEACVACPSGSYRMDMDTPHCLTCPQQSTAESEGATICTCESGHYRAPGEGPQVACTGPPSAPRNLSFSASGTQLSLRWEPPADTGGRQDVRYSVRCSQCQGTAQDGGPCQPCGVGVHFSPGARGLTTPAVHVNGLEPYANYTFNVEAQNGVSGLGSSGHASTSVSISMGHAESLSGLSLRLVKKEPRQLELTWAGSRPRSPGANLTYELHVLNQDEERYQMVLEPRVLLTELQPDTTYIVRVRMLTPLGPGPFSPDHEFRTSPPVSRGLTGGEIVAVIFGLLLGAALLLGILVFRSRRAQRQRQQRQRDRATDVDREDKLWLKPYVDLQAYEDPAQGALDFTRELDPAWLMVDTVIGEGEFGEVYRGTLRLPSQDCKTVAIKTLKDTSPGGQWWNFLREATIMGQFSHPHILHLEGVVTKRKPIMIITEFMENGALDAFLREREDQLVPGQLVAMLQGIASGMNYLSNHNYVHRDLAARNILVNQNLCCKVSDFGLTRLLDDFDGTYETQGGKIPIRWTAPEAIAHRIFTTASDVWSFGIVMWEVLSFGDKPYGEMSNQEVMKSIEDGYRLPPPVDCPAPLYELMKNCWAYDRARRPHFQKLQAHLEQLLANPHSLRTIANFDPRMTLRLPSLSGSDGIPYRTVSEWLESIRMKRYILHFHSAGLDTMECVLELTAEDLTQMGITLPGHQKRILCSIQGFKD
Experimental: as §1, §2, §3, §4, §5, §6

FER = biological target: T5, FER (Homo sapiens, UniProt P16591); assay: NanoBRET K192 assay (Promega); conditions: HEK293 cells
T5 construct: against 192 full-length protein kinases in human embryonic kidney 293 (HEK293) cells; host or cells: HEK293
Experimental: as §1, §2, §3, §4, §5, §6

FLT3 = biological target: T6, FLT3 (Homo sapiens, UniProt P36888); assay: NanoBRET K192 assay (Promega); conditions: HEK293 cells
T6 construct: against 192 full-length protein kinases in human embryonic kidney 293 (HEK293) cells; host or cells: HEK293
Experimental: as §1, §2, §3, §4, §5, §6

GAK = biological target: T7, GAK (Homo sapiens, UniProt O14976); assay: NanoBRET K192 assay (Promega); conditions: HEK293 cells
T7 construct: against 192 full-length protein kinases in human embryonic kidney 293 (HEK293) cells; host or cells: HEK293
Experimental: as §1, §2, §3, §4, §5, §6

MAP4K2 = biological target: T8, MAP4K2 (Homo sapiens, UniProt Q12851); assay: NanoBRET K192 assay (Promega); conditions: HEK293 cells
T8 construct: against 192 full-length protein kinases in human embryonic kidney 293 (HEK293) cells; host or cells: HEK293
Experimental: as §1, §2, §3, §4, §5, §6

NTRK1 = biological target: T9, NTRK1 (Homo sapiens, UniProt P04629); assay: NanoBRET K192 assay (Promega); conditions: HEK293 cells
T9 construct: against 192 full-length protein kinases in human embryonic kidney 293 (HEK293) cells; host or cells: HEK293
T9 sequence (P04629 33-796): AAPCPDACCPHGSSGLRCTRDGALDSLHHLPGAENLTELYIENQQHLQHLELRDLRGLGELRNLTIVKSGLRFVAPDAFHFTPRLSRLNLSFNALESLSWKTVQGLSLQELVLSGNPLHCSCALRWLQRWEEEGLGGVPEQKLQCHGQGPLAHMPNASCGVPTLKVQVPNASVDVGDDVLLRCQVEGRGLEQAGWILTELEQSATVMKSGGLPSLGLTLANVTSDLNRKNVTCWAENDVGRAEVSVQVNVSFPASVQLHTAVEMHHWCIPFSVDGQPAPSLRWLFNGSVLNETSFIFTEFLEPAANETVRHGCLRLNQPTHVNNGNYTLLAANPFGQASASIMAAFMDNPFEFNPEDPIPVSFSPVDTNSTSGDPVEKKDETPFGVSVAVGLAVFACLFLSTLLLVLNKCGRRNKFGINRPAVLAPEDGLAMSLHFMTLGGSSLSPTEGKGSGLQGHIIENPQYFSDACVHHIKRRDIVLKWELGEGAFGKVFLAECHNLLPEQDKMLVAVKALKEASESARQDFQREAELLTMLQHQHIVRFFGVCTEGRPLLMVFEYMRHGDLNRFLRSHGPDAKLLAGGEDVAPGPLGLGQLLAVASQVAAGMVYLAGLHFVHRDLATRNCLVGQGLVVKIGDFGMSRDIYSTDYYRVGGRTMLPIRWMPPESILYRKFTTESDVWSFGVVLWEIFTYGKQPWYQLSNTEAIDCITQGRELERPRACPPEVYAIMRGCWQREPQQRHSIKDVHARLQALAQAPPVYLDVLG
Experimental: as §1, §2, §3, §4, §5, §6

NTRK2 = biological target: T10, NTRK2 (Homo sapiens, UniProt Q16620); assay: NanoBRET K192 assay (Promega); conditions: HEK293 cells
T10 construct: against 192 full-length protein kinases in human embryonic kidney 293 (HEK293) cells; host or cells: HEK293
Experimental: as §1, §2, §3, §4, §5, §6

PHKG1 = biological target: T11, PHKG1 (Homo sapiens, UniProt Q16816); assay: NanoBRET K192 assay (Promega); conditions: HEK293 cells
T11 construct: against 192 full-length protein kinases in human embryonic kidney 293 (HEK293) cells; host or cells: HEK293
Experimental: as §1, §2, §3, §4, §5, §6

PHKG2 = biological target: T12, PHKG2 (Homo sapiens, UniProt P15735); assay: NanoBRET K192 assay (Promega); conditions: HEK293 cells
T12 construct: against 192 full-length protein kinases in human embryonic kidney 293 (HEK293) cells; host or cells: HEK293
Experimental: as §1, §2, §3, §4, §5, §6

PTK2 = biological target: T13, PTK2 (Homo sapiens, UniProt Q05397); assay: NanoBRET K192 assay (Promega); conditions: HEK293 cells
T13 construct: against 192 full-length protein kinases in human embryonic kidney 293 (HEK293) cells; host or cells: HEK293
T13 sequence (Q05397 whole entry): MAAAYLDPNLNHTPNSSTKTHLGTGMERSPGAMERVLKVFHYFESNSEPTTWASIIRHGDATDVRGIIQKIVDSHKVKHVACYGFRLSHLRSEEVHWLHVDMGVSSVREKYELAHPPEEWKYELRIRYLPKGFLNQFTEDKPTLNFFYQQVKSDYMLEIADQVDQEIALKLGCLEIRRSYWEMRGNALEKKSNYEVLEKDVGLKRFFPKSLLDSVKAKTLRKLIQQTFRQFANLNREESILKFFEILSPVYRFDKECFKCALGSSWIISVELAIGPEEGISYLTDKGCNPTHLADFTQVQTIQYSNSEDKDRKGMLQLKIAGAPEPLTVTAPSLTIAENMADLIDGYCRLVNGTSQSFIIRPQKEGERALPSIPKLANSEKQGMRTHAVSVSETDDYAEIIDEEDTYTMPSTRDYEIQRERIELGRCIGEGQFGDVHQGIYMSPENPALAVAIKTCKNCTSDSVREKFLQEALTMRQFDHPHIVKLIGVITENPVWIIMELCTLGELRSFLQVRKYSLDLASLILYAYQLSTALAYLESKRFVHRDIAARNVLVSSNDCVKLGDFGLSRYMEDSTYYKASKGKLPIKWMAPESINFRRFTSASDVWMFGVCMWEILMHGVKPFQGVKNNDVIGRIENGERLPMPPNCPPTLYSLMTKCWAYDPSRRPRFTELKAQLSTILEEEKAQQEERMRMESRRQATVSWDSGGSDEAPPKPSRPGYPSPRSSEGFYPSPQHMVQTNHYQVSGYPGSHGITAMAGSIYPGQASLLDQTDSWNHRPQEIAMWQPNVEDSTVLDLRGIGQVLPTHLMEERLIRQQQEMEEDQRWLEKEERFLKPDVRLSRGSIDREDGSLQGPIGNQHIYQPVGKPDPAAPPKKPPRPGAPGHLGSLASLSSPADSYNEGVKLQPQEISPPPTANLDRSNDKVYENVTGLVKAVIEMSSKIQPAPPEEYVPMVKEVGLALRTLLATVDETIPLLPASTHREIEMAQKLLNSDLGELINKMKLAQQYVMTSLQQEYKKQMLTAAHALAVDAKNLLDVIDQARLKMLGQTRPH
Experimental: as §1, §2, §3, §4, §5, §6

PTK2B = biological target: T14, PTK2B (Homo sapiens, UniProt Q14289); assay: NanoBRET K192 assay (Promega); conditions: HEK293 cells
T14 construct: against 192 full-length protein kinases in human embryonic kidney 293 (HEK293) cells; host or cells: HEK293
Experimental: as §1, §2, §3, §4, §5, §6

STK4 = biological target: T15, STK4 (Homo sapiens, UniProt Q13043); assay: NanoBRET K192 assay (Promega); conditions: HEK293 cells
T15 construct: against 192 full-length protein kinases in human embryonic kidney 293 (HEK293) cells; host or cells: HEK293
T15 sequence (Q13043 whole entry): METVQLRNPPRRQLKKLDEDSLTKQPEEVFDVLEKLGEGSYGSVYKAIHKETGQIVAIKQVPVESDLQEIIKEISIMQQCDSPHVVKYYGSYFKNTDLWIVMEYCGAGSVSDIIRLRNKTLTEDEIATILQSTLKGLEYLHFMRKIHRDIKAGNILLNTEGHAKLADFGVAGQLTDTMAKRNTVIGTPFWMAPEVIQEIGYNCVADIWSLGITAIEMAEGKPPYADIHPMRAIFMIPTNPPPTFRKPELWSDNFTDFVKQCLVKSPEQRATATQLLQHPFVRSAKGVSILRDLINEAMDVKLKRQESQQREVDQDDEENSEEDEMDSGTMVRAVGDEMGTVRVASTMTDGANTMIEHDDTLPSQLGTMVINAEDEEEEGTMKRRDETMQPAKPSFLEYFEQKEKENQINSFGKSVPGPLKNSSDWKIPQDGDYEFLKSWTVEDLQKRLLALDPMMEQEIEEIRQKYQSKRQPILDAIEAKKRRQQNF
Experimental: as §1, §2, §3, §4, §5, §6

STK33 = STK33 (Homo sapiens, UniProt Q9BYT3); assay: NanoBRET target engagement intracellular kinase assay; design: host or cells: HEK293 (HEK293T cultured)
Chain of STK33 (Q9BYT3 whole entry): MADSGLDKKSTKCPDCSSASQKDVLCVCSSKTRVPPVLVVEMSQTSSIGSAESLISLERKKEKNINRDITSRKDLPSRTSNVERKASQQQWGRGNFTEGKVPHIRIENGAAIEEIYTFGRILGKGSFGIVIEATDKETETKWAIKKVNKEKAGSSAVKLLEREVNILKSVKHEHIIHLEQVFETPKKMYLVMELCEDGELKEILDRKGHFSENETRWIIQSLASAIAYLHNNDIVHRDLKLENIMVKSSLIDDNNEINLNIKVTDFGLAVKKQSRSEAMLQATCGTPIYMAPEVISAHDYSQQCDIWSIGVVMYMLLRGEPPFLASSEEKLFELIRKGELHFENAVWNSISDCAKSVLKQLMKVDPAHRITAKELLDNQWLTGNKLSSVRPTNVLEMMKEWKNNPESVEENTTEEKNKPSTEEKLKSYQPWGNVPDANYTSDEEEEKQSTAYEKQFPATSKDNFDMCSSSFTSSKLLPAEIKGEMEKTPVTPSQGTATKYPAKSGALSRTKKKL
Experimental: NanoBRET Target Engagement intracellular kinase assay. HEK293T cells were cultured in […]
The cell line underwent authentication by short tandem repeat (STR) profiling at Cytogenetics and Cell Authentication Core (CCAC) at MD Anderson Cancer Center. NanoBRET Target Engagement intracellular kinase assay, K-10 assay (Cat. # N2641), K-9 assay (Cat. # N2631), transfection reagent FuGENE HD (Cat. # E2311), transfection carrier DNA (Cat. # E4881), NanoLuc-STK33 fusion vector (Cat. # NV2111), NanoLuc-RET fusion vector (Cat. # NV1951), NanoLuc-CLK1 fusion vector (Cat. # NV1131), NanoLuc-CLK2 fusion vector (Cat. # NV1141), and NanoLuc-CLK4 fusion vector (Cat. # NV1151) were purchased from Promega. The measurement of test compound engagement with cellular target protein was performed in a 384-well format according to manufacturer’s instructions. HEK293 cells were transiently transfected with NanoLuc (STK33, RET, CLK1, CLK2, and CLK4) fusion vectors. After 36 hours of transfection, cells were treated with a fixed concentration of tracer (recommended by Promega) followed by compounds (inhibitors) for 2 hours of incubation. To determine the test compound […]
0.4 nM at a fixed tracer concentration. Staurosporine was measured in parallel as a positive control.
Freshly prepared NanoBRET Nano-Glo substrate plus extracellular NanoLuc inhibitor was then added to initiate the subsequent bioluminescence resonance energy transfer (BRET) measurements using a CLARIOstar Plus BMG LABTECH plate reader. Data analysis was done by measuring the ratio of acceptor emission to donor emission (BRET ratio) and normalized by subtracting no-tracer-control-background. IC50 values were obtained by nonlinear regression using a four-parameter equation in GraphPad Prism 7 (San Diego, CA).

T1 sequence (Q2M2I8 whole entry): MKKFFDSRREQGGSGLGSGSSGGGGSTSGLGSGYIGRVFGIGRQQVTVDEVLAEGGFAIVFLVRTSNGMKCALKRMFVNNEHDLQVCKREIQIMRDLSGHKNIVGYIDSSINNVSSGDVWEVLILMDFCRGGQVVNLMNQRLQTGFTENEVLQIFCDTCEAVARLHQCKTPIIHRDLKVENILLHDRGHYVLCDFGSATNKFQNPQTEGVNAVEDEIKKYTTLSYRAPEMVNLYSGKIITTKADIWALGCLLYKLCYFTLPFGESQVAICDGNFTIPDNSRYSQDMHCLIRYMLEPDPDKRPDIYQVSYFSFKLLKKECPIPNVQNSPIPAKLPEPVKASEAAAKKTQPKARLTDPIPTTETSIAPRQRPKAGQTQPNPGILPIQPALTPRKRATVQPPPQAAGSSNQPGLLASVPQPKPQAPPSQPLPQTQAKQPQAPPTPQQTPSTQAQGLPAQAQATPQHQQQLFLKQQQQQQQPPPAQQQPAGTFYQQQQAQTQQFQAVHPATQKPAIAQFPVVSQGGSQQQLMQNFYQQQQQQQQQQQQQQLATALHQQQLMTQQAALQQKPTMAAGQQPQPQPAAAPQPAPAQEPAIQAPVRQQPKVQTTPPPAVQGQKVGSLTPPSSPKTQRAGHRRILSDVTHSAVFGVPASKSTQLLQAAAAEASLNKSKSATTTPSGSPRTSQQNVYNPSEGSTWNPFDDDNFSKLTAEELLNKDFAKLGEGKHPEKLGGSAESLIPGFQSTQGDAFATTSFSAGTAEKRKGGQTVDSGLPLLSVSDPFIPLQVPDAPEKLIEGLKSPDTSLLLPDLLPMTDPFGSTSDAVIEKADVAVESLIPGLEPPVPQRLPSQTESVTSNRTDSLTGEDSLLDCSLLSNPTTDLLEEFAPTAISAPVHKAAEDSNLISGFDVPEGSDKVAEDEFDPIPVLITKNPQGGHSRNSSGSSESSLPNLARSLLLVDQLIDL

O=C(c1ccc2[nH]nc(C#Cc3ccccc3-c3ccccc3)c2c1)N1CC2(CCCNC2)C1 [CDD-2807]
receptor occupancy at 1 µM (AAK1): 56.4 ± 1.3% | receptor occupancy at 1 µM (BMP2K): 54.5 ± 0.3% | receptor occupancy at 1 µM (CSNK1G2): 32.4 ± 1.3% | receptor occupancy at 1 µM (EPHA1): 30.6 ± 2.4% | receptor occupancy at 1 µM (FER): 38 ± 1.2% | receptor occupancy at 1 µM (FLT3): 30.3 ± 2.6% | receptor occupancy at 1 µM (GAK): 57.4 ± 0.1% | receptor occupancy at 1 µM (MAP4K2): 40 ± 0.6% | receptor occupancy at 1 µM (NTRK1): 31.8 ± 1% | receptor occupancy at 1 µM (NTRK2): 44.5% | receptor occupancy at 1 µM (PHKG1): 58.4 ± 2.9% | receptor occupancy at 1 µM (PHKG2): 59.2 ± 1.2% | receptor occupancy at 1 µM (PTK2): 76.5 ± 0.2% | receptor occupancy at 1 µM (PTK2B): 45.2 ± 0.2% | receptor occupancy at 1 µM (STK4): 30.3 ± 0.4% | selectivity toward STK33 compared to CLK1, CLK2, CLK4, and RET (STK33): > 9 fold | IC50 (STK33; HEK293 cells, 2 hours incubation): 9.2 nM

From PMC11842024, “Reversible male contraception by targeted inhibition of serine/threonine kinase 33” (Science (New York, N.Y.), 2024)
